Laboratory results taken from patent US20030144350A1, “Fat accumulation-modulation compounds” (AdipoGenix, Inc., priority 2001, published 2003).
Where two headings read alike, the source gives them in different places.

How the values were obtained:
[1] = mice, single injections; cited from earlier work
[2] = test system: primary human subcutaneous preadipocytes; assay: High throughput screening of fluorescent fatty acid (FA*) accumulation in differentiating human preadipocytes; type: cell-based
Procedure: Growth medium was changed every three days. […] Cell plates were prewashed with FAB+, and then FA* was added. Cells were incubated with FA* for four hours, and then postwashed with FAB+ to remove unincorporated FA*. Cellular fluorescence of triglyceride droplets that have incorporated FA* was measured on a microplate reader. Efficacy of compounds on inhibiting FA* accumulation was determined by the following calculation: […]

[3] = test system: primary human subcutaneous preadipocytes; settings: for % Toxicity: Alamar Blue
Procedure: Up to five cell strains of banked primary human subcutaneous preadipocytes were used for high throughput screening. Cells were grown in tissue culture flasks, maintained under standard incubation conditions (5% carbon dioxide, 37° C.) and split evenly when 100% confluent into two new tissue culture flasks (one cell division) in growth medium. Cells were split up to four times to produce enough cells for screening.
Two to five days before the experiment, adhered cells were detached with trypsin/EDTA, combined and seeded into 384-well plates at 100% confluency. On day zero, cells were incubated with […] to induce differentiation of preadipocytes into adipocytes (characterized by cell rounding, formation of triglyceride droplets, etc.). Growth medium was changed every three days. On day six, cells were incubated in triplicate with test compounds (supplied by ComGenex International, Inc., South San Francisco, USA) at various concentrations.
Compounds were first diluted in a phosphate-buffered saline solution with 0.1% fatty-acid free bovine serum albumin (BSA, to aid compound suspension), and then added to cells. Negative control cells were treated with DMSO, the solvent used for initially dissolving compounds, at 0.1% final concentration.
Subsequent determination of compound toxicity was measured by incubating cells with Alamar Blue (an indicator of cellular viability, purchased from BioSource International Inc., Camarillo, Calif., USA) for three to four hours before measuring fluorescence of the reduced compound. Toxicity of compounds was determined by the following calculation:
% Toxicity=100-(sample fluorescence/negative control fluorescence*100)

Row | Compound | food eaten less than untreated littermates [1] | efficacy ([2]; 10 μM) | Emax at 0.3 µM ([2]; Homo sapiens, FCCP 0.3 uM, inhibition of FA* accumulation, read-out: % Efficacy) | Emax at 1 µM ([2]; Homo sapiens, FCCP 1 uM, inhibition of FA* accumulation, read-out: % Efficacy) | Emax at 3 µM ([2]; Homo sapiens, FCCP 3 uM, inhibition of FA* accumulation, read-out: % Efficacy) | toxicity ([3]; 10 μM) | % Toxicity ([3]; FCCP 0.3 uM) | % Toxicity ([3]; FCCP 1 uM) | % Toxicity ([3]; FCCP 3 uM)
1 | C=C1C(=O)OC(CCCCCCCC)C1C(=O)O (stereo not drawn) [Compound C75] | 90% |  |  |  |  |  |  |  | 
2 | N#CC(C#N)=NNc1ccc(OC(F)(F)F)cc1 [FCCP, Carbonyl cyanide p-(trifluoromethoxy)phenylhydrazone] |  | 100% | 42% | 79% | 90% | 100% | −1% | −4% | 5%
